{"source": "paper PMC8536575", "about": "“Acute effects of the imidacloprid metabolite desnitro-imidacloprid on human nACh receptors relevant for neuronal signaling” (Archives of Toxicology, 2021)", "key": {"nAChRs on SH-SY5Y cells [1]": {"biological_target": "nAChRs on SH-SY5Y cells (Homo sapiens, UniProt P36544)", "sequence (P36544 23-502)": "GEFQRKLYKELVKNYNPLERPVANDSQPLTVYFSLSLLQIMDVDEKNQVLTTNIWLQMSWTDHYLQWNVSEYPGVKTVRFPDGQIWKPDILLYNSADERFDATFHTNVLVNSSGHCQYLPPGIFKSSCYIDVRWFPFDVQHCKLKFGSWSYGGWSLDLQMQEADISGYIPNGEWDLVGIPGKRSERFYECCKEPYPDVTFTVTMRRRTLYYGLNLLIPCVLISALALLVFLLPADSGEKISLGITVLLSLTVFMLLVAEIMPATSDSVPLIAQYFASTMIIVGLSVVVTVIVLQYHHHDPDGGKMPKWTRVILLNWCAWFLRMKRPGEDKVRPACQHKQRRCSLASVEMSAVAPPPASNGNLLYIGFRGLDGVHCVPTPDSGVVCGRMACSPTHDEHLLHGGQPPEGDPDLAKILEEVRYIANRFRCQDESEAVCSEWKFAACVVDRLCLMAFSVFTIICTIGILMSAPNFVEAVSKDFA", "test": "[Ca2+]i measurements in SH-SY5Y cells (agonist effect)", "assay_type": "cell-based", "details": "presence of PNU", "description": "(§1) SH-SY5Y cells were cultured as previously described (Attoff et al. [2016]). Briefly, they were cultured in MEM supplemented with 10% fetal bovine serum (Gibco, 31330095), 1% non-essential amino acid solution (Gibco, 11140035), 2 mM L-glutamine (Gibco, 25030024), 100 μg/ml streptomycin, and 100 U/ml penicillin (Gibco, 15140122). For maintenance culture, SH-SY5Y cells were seeded at 27,000 cells/cm^2 in 75 cm^2 cell culture flasks (Corning). The cells were passaged once a week using TrypLE Express Enzyme (Gibco). SH-SY5Y cells were differentiated into a neuronal-like phenotype by exchanging the maintenance medium with differentiation medium consisting of DMEM/F12 (Gibco, 31330095) supplemented with 1 mM L-glutamine (Gibco, 25030024), 100 μg streptomycin/mL, 100 U penicillin/mL, 1 × N2-supplement (Gibco, 17502048) and 1 µM all-trans retinoic acid (RA, Sigma, R2625) 24 h after seeding. The cells were incubated in 100% humidity at 37 °C in air with 5% CO2.\n(§2) To measure acute changes in the average [Ca^2+]i of a population, SH-SY5Y cells were examined in the 96-well plate fluorescence reader FlexStation II (Molecular Devices) using the fluorophore Fura-2AM. SH-SY5Y (35,000 cells/well; 109,375 cells/cm^2) were seeded in maintenance culture medium in black 96-well plates with clear bottom (Corning, #3603). 24 h after seeding, maintenance medium was replaced with differentiation medium. After 72 h of differentiation, Fura-2AM dissolved in DMSO and diluted in KRH buffer (125 mM NaCl, 5 mM KCl, 1.2 mM MgSO4, 1.2 mM KH2PO4, 2.0 mM CaCl2, 6.0 mM D-glucose, and 25 mM HEPES (free acid), pH adjusted to 7.4 by 1.0 M NaOH) were added to the medium to a final concentration of 4 µM (Gustafsson et al. [2010]). The plates were incubated for 30 min at 37 °C before cells were washed once with 200 µl KRH buffer. 90 µl of KRH buffer without or with 10 µM PNU-120596 (PNU) and/or 125 µM mecamylamine (Mec) and/or test chemicals in different concentrations for antagonist experiments were added to the Fura-2AM-loaded cells. The plate was again incubated for 20 min to allow full hydrolysis of the AM group before the experiment. The fluorescence was assessed at 37 °C in the fluorescence plate reader (FlexStation II; Molecular Devices) at two different excitation wavelengths, 340 nm for Ca^2+-bound Fura-2 and 380 nm for free Fura-2, and at 510 nm emission, every 3.1 s using bottom read settings. After 26–29 s of initial baseline recording of the fluorescence intensity, 10 µl of the compound dilution (10 times higher than the final concentration to the cells) was transferred automatically by the FlexStation II (“Flex mode”) to the cell plate wells (five wells per concentration) and the fluorescence intensity was monitored for another 150 s. The ratio of fluorescence intensity at 340/380 nm was determined and the mean values from the baseline recording before the addition of test compounds was set to zero. The acute change in the Ca^2+ influx after the addition of the compounds was quantified as the area under the curve (AUC) using the SoftMax Pro 4.8 software (Molecular Devices). All test compounds were dissolved in DMSO. Compounds were diluted in KRH buffer in 1:3 series, with 100 µM as the highest concentration. As a negative control, 0.1% DMSO in KRH buffer was used."}, "nAChRs on SH-SY5Y cells [2]": {"test_system": "nAChRs on SH-SY5Y cells", "test": "[Ca2+]i measurements in SH-SY5Y cells (agonist effect)", "assay_type": "cell-based, human", "description": "as §1, §2"}, "human α4β2 (HS) nAChR": {"biological_target": "T1, human α4β2 (HS) nAChR (Homo sapiens, UniProt P17787+P43681)", "T1 construct": "expressed in transfected cells; host or cells: Xenopus laevis oocytes (EcoCyte Bioscience), mRNA injection, 3 ng α4 and 30 ng β2", "T1 sequence (P43681 27-627)": "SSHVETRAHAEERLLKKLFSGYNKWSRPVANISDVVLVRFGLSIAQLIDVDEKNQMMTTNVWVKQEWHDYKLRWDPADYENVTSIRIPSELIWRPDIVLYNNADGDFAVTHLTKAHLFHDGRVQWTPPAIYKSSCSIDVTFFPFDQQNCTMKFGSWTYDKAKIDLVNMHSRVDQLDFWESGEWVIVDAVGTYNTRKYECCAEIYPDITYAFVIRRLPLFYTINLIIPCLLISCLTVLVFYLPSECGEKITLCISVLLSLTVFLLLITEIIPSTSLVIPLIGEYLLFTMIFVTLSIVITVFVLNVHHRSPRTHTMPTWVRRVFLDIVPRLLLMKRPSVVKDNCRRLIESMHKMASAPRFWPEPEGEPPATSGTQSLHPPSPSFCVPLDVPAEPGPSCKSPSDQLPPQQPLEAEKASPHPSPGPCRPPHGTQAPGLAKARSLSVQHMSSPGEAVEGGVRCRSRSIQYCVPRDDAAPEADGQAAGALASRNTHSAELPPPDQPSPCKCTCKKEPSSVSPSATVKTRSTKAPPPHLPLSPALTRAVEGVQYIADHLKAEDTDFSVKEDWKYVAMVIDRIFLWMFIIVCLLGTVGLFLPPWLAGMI", "T1 sequence (P17787 26-502)": "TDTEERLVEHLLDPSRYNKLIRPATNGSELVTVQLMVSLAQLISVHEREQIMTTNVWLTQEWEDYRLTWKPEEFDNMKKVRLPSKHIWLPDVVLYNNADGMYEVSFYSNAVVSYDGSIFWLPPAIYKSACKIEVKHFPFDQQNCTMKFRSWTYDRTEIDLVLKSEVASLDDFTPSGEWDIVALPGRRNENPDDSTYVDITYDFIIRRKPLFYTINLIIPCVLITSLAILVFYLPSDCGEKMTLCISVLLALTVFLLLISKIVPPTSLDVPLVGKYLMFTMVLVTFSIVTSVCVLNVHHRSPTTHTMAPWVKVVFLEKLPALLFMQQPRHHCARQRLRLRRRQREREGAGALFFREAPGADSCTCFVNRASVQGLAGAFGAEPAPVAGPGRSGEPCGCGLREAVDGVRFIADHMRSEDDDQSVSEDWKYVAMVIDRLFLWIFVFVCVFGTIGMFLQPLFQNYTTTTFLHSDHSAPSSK", "test": "Two-electrode voltage-clamp recordings, Xenopus laevis oocytes expressing human α4β2 (HS) nAChR", "assay_type": "cell-based"}, "human α3β4 nAChR": {"biological_target": "T2, human α3β4 nAChR (Homo sapiens, UniProt P30926+P32297)", "T2 construct": "expressed in transfected cells; host or cells: Xenopus laevis oocytes, mRNA injection, 0.33 ng α3 and 3.33 ng β4", "T2 sequence (P32297 32-505)": "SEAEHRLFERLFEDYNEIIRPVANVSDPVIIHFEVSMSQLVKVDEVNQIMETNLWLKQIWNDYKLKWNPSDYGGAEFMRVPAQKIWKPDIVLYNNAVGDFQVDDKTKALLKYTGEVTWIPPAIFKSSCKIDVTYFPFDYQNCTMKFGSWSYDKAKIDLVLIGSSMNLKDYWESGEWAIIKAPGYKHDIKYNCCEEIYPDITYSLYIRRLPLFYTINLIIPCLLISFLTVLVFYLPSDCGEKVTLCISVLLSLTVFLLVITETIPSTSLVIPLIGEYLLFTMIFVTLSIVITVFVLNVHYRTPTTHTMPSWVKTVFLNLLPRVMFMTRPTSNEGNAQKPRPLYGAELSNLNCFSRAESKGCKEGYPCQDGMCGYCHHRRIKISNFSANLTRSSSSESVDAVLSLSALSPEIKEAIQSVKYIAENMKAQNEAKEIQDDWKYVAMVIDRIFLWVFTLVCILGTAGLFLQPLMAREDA", "T2 sequence (P30926 22-498)": "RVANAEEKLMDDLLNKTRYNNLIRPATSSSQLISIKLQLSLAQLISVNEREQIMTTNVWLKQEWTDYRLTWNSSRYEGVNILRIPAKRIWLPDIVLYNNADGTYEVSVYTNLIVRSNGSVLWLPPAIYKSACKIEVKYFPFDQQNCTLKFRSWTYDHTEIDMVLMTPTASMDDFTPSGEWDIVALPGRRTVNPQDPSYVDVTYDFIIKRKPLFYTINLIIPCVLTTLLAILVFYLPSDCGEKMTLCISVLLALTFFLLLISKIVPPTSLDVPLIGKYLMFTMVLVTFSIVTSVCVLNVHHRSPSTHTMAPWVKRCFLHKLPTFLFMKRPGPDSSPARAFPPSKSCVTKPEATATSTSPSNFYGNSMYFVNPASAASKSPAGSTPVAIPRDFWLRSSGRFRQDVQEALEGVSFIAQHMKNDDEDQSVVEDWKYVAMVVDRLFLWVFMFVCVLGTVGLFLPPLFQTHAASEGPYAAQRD", "test": "Two-electrode voltage-clamp recordings, Xenopus laevis oocytes expressing human α3β4 nAChR", "assay_type": "cell-based"}, "[3]": {"details": "from curve-fitted concentration–response data"}}, "note": "Several values for one entry are separate records, joined by “and”; a condition that tells them apart may be missing. Equal entries are not always repeated."}
{"molecule": "NC1=NCCN1Cc1ccc(Cl)nc1", "note": "[DN-IMI, desnitro-imidacloprid]", "values": [{"measurement": "relative pEC50 (AUC of fluorescence)", "setting": "nAChRs on SH-SY5Y cells [1]; normalized to 10 µM nicotine, fit for < 10 µM", "value": "6.5 ± 0.07"}, {"measurement": "EC50", "setting": "nAChRs on SH-SY5Y cells [1]; read-out: half-maximal response concentration", "value": "300 nM and ~300 nM"}, {"measurement": "response without PNU as % of the maximal response obtained in the presence of PNU", "setting": "nAChRs on SH-SY5Y cells [2]; absence of PNU", "value": "about 44%"}, {"measurement": "estimated maximum", "setting": "nAChRs on SH-SY5Y cells [2]; absence of PNU, normalized to 10 µM nicotine", "value": "~ 0.44"}, {"measurement": "relative pEC50 (AUC of fluorescence)", "setting": "nAChRs on SH-SY5Y cells [2]; absence of PNU, normalized to 10 µM nicotine, fit for < 10 µM", "value": "6.8 ± 0.36"}, {"measurement": "concentration of peak response", "setting": "nAChRs on SH-SY5Y cells [2]; presence of PNU, declining responses at higher concentrations", "value": "~ 3 µM"}, {"measurement": "estimated maximum", "setting": "nAChRs on SH-SY5Y cells [2]; presence of PNU, normalized to 10 µM nicotine", "value": "~ 0.93"}, {"measurement": "EC50", "setting": "human α4β2 (HS) nAChR", "value": 501, "unit": "nM"}, {"measurement": "fold lower concentrations activating α4β2 (HS) than α7 and α3β4 nAChRs", "setting": "human α4β2 (HS) nAChR", "value": 20, "unit": "fold"}, {"measurement": "higher potency on α4β2 (HS) nAChR than on other subtypes", "setting": "human α4β2 (HS) nAChR; comparison of EC25 values, α4β2 (HS) vs α7 and α3β4", "value": "> 1", "unit": "log-step"}, {"measurement": "absolute EC25", "setting": "human α4β2 (HS) nAChR; [3]", "value": 330, "unit": "nM"}, {"measurement": "estimated maximum amplitude, % of nicotine's", "setting": "human α4β2 (HS) nAChR; normalized to nicotine (10 µM)", "value": 64, "unit": "%"}, {"measurement": "EC50", "setting": "human α3β4 nAChR", "value": 12600, "unit": "nM"}, {"measurement": "absolute EC25", "setting": "human α3β4 nAChR; [3]", "value": 5200, "unit": "nM"}, {"measurement": "estimated maximum", "setting": "human α3β4 nAChR; normalized to nicotine (1 mM)", "value": "~ 0.65"}]}
